In patent publication US20260193668A1, “NOVEL PEPTIDES AND USE THEREOF FOR MODULATING PROTEIN ACCUMULATION” (UNIVERSITE TOULOUSE III - PAUL SABATIER, priority 2022, published 2026):

Key:
[1] = test system: luciferase mRNA; assay: Relative expression of the luciferase transgene by RT-qPCR; type: in vivo, Arabidopsis thaliana; details: A. thaliana expressing LUC treated with synthetic peptide
Source text: (§1) Analysis of luciferase expression in A. thaliana constitutively expressing the LUC transgene. (a) Agarose gel after PCR amplification of RNA obtained by immunoprecipitation using anti-HA magnetic beads, followed by RT-PCR, on plants treated with the indicated peptide (SC-HA: Scrambled cPEPluc-HA; Luc-HA: cPEPluc-HA). (b) Relative expression of the luciferase transgene in plants treated with the indicated peptide, quantified by RT-qPCR. (c-e) Relative quantification of LUC in plants treated with the indicated peptide. (f, g) Ratio between induction and quantification of LUC in plants treated with cPEPluc compared to plants treated with Scrambled cPEPluc, using different peptide concentrations (f) or taken at different time points (g). (h) Transcriptomic analysis of plants treated with cPEPluc-HA compared to plants treated with Scrambled cPEPluc-HA. (i) Proteomic analysis of plants treated with cPEPluc-HA compared to plants treated with Scrambled cPEPluc-HA. Protein expression was analysed by Western blots and quantified using ImageJ.
Quantification of mRNAs was performed by qRT-PCR using appropriate primer pairs selected from the sequences: SEQ ID NOs: 367 to 374. Expression levels for the controls were set at 100. The primers used for the A. euteiches assays are described in Camborde et al (New Phytol. 233:2232-2248. 2022).

[2] = test system: luciferase; assay: Luciferase activity in A. thaliana constitutively expressing the LUC transgene; type: in vivo, Arabidopsis thaliana
Source text: as §1
Medicago truncatula Gaertn cv. Jemalong genotype A17 were grown on Long Aston medium as described in Delaux P M et al (New Phytol. 2013 July; 199(1):59-65). Arabidopsis thaliana Col-0 plants were grown in soil until 4 weeks of age in a growth chamber (22/20° C., 16 h/8 h L/D, RH 80%, ~75 μmol·m^−2 s^−1). Barbarea vulgaris seeds were stratified for 24 h at 4° C. before being grown in pots in a growth chamber. Seeds of Amaranthus hypochondriacus, Glycine max and Solanum lycopersicum were sown in pots and grown in a growth chamber. […]
N. benthamiana plants were treated by spraying the leaves 24 h before harvesting. […] 5 μL of luciferin was added and luciferase activity was read 30 min later using a spectrophotometer. […] To quantify the protein level induced by cPEPs in Arabidopsis, rosettes were sprayed daily with 100 μM of peptide or its control for 5 days. […] Chlorophyll content was measured using the SPAD chlorophylometer (Konica Minolta). Leaf area was measured using ImageJ software. […]

[3] = test system: luciferase; assay: Luciferase activity in A. thaliana LUC plants with or without cycloheximide; type: in vivo, Arabidopsis thaliana; details: cycloheximide 200 μg·mL^−1, 24 h
Experimental: (§2) (a) Analysis of luciferase activity in A. thaliana plants constitutively expressing the LUC transgene and treated with Scrambled cPEPluc or cPEPluc, with or without cycloheximide. (b) Analysis of luciferase activity after in vitro transcription/translation of luciferase expressed with cPEPluc or Scrambled cPEPluc.
Arabidopsis thaliana plants comprising the LUC construct were treated by infiltrating the leaves with a solution of peptide with or without cycloheximide (200 μg·mL^−1) in MS/2 medium, 24 h before harvesting for the LUC assay.

[4] = test system: luciferase; assay: In vitro transcription/translation of luciferase (wheat germ system); type: biochemical; details: 60 min
Source text: as §2
The TnT® SP6 high-throughput wheat germ protein expression system (Promega) was used according to the manufacturer's instructions. The LUC sequence was amplified using the GoTaq Polymerase® (Promega), cPEPs or their corresponding Scramble versions were added just prior to the start of the reaction. The reaction was stopped after 60 min, after which LUC activity was measured using a plate spectrophotometer (Perkin-Elmer Victor Nivo).

[5] = test system: soybean plants; assay: Heat stress resistance of soybean plants; type: in vivo, Glycine max; details: 45° C. for 24 h
Source text: (§3) (a, b) Relative area of lesions on S. lycopersicum leaves infected with B. cinerea and treated with an irrelevant peptide or cPEPjar1. (c, d) Heat stress resistance of soybean plants treated with an irrelevant peptide or cPEPsp101. (e, f) Growth (plant height) of soybean plants treated with an irrelevant peptide or a mixture of cPEPs (targeting MRB1, SHY2 and SGR1). (g, h) Leaf area of B. vulgaris plants treated with an irrelevant peptide or a mixture of cPEPs (targeting EIN2, BR11, BAK1 and WUS). (i, j) Leaf surface of A. hypochondriacus plants treated with an irrelevant peptide or a mixture of cPEPs (targeting EIN2, BR11, BAK1 and WUS).
N. benthamiana plants were treated by spraying the leaves 24 h before harvesting. For Luc assays, 100 μL of MS/2 liquid medium containing the peptides was added to each well. 5 μL of luciferin was added and luciferase activity was read 30 min later using a spectrophotometer. All other assays were performed by spraying or watering the plants. To quantify the protein level induced by cPEPs in Arabidopsis, rosettes were sprayed daily with 100 μM of peptide or its control for 5 days. Leaves were harvested 6 h after the last treatment for western blot analysis. […] Chlorophyll content was measured using the SPAD chlorophylometer (Konica Minolta). Leaf area was measured using ImageJ software. […]

[6] = test system: Botrytis cinerea; assay: S. lycopersicum leaves infected with B. cinerea; type: in vivo; details: tomato
Source text: as §3
Wild-type or mutant A. thaliana leaves were sprayed daily with 100 μM of peptide or 100 μM of the corresponding scramble version for 3 days. Six hours after the last treatment, five mature leaves per plant were inoculated with a 5 μL droplet of 2.5×10^5 spores/mL of Botrytis cinerea strain B05.10 diluted in 100 μM of peptide or its corresponding scramble version. After inoculation, plants were maintained at 100% relative humidity. Then, a 2 μL droplet of 100 μM of peptide or 100 μM of the corresponding scramble version was deposited daily on B. cinerea-infected leaves for 3 days (until symptoms appeared). Leaves were removed from the plants to determine lesion areas using the ImageJ programme. […]

[7] = 96-well assay, cPEPluc compared to Scrambled cPEPluc

Question: Which results are given for “cPEPluc: complementary peptide of 10 amino acids corresponding to a 10 amino acid fragment of the luciferase protein (KRYGLNTNHR; cPEPluc)”?
Answer: luciferase mRNA abundance (qPCR) [1]: no effect; optimum concentration of cPEP for luciferase induction [2, 7]: 50 µM; treatment time showing the maximum effect of cPEP [2, 7]: 24 h; luciferase activity ([2]; A. thaliana LUC seedlings, exogenous peptide treatment, compared with water or non-luciferase-specific peptides): increased; effect of cPEPluc on luciferase activity in the presence of CHX [3]: inhibited; LUC activity in vitro [4]: increased

Question: “cPEPhsp101 (EEYRKYVEKD; cPEPhsp101) [SEQ ID NO: 408, cPEP targeting the homolog of HSP101 in soybean]” was tested. Which “tolerance to heat stress” value [5] did it give?
Answer: increased

Question: With “cPEPjar1: cPEP targeting the tomato JAR1 protein (AFRTFEQVWE; cPEpjar1)” as the substance, how does the “plant's resistance to B. cinerea” value [6] read?
Answer: improved
